In test [1] the target is T1, α2-GABAA receptor (Homo sapiens, UniProt P18507+P47869).
T1 construct: expressed in transfected cells
In words: Whole-cell patch-clamp electrophysiology, positive allosteric modulatory activity in α2-GABAAR-HEK293 cells. Type of test: cell-based. The settings on record: compound 100 nM, GABA 0.10 to 0.11 µM (approximately EC7-8), normalized to reference compound CVL-865 (= 100%); for Emax at 0.1 µM: read-out: α2-GABAAR Positive allosteric modulatory activity. The essentials:
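HEK293 cells stably co-expressing α2β3γ2 GABAA receptor, whole-cell patch clamp at -60 mV. Compounds at 100 nM final applied with GABA 0.10–0.11 µM (~EC7-8) after GABA-only current stabilized. […]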
Background: Patch clamp records ionic current or voltage across a cell membrane.

For test [2], the target named is T1, α2-GABAA receptor. In words: Radioactive ligand (3H-flunitrazepam) competitive binding assay, BZD site of membrane proteins of α2-GABAAR-HEK293 cells. The text has this: The α subunit, β subunit, and γ subunit are indispensable for forming a fully functional GABAA receptor. In this example, HEK293 cells stably expressing α2-GABAA receptors (α2-GABAAR) were constructed and screened respectively via liposome transfection (Felgner, P.L., et al. Proceedings of the National Academy of Sciences, 1987, 84: 7413-7417). The α2-GABAAR-HEK293 cell model co-expresses the α2 subunit (protein sequence referenced under GenBank accession number: NM_000807.4), β3 subunit (protein sequence referenced under GenBank accession number: NM_000814.5), and γ2 subunit (protein sequence referenced under GenBank accession number: NM_000816.3).
The above cell lines were subcultured. α2-GABAAR-HEK293 cells were amplified for testing the affinity of compounds to the benzodiazepine (BZD) site of GABAA receptors. Some of the α2-GABAAR-HEK293 cells in suspension during subculturing were plated on glass slides pre-treated with Poly-D-Lysine for electrophysiological testing (method reference: Patent CN 107344936 A, paragraph 0586).
The affinity of the compound for the α2-GABAA receptor was determined by competing with ^3H-flunitrazepam (isotope ^3H-labeled flunitrazepam) for binding to the BZD site of membrane proteins in HEK293 cells stably expressing human α2-GABAAR.
Membrane preparation: Cells were suspended in 50 mM Tris-HCl buffer (pH=7.4), homogenized on ice using a homogenizer for 20 seconds with 10 repetitions, and centrifuged at 4°C, 1000g for 10 minutes. The supernatant was collected, and the above steps were repeated. The supernatant was centrifuged at 4°C (33,800 × g; Thermo, rotor: A27-8x50) for 60 minutes, and the pellet was resuspended in Tris buffer (50 mM Tris-HCl, 10 mM MgCl2, 0.5 mM EDTA, 10% glycerol). The protein concentration was determined using the bicinchoninic acid (BCA) protein assay based on the copper ion reduction method (BCA kit purchased from Pierce (Annoron)). Aliquots of 1 mL were prepared and stored at -80°C.
Radioactive ligand competitive binding assay: This assay was conducted in a 200 µL system (96-well plate), containing 100 µL of cell membrane. The concentration of ^3H-flunitrazepam was 1 nM, and the concentration of the test compound ranged from […]. Flumazenil was used as a control. The low signal control well (Low Control, LC) was added with 1 µL of 2 mM flumazenil (final concentration 10 µM), while the high signal control well (High Control, HC) was added with 1 µL of dimethyl sulfoxide. The final concentration of the target membrane protein was 5 µg/well. All test compound stock solutions were prepared as 10 mM solutions in dimethyl sulfoxide. The working concentration of the samples was prepared by diluting all samples to 0.2 mM with dimethyl sulfoxide, followed by a 4-fold serial dilution to obtain a total of 8 concentration gradients. The 96-well plate was sealed with sealing film and then incubated on a shaker at room temperature for 1 hour. The GF/C filter plate was also soaked with a soaking buffer (0.3% PEI (polyethyleneimine, purchased from: Sigma-Aldrich, model: P314), stored at 4°C) for at least 0.5 hours. After the incubation was completed, the mixture was collected onto a GF/C filter plate using a cell harvester and washed four times with wash buffer (50 mM Tris-HCl, pH 7.4, stored at 4°C). After drying in a 50°C oven for 1 hour, the dried GF/C filter plate was sealed at the bottom with a film. The residual radioactivity on the filter membrane was detected using liquid scintillation counting. Each well was filled with 50 µL of scintillation fluid and sealed. Readings were taken using a Microbeta^2 (microplate counter, purchased from PerkinElmer, model: CNLL0153). The inhibitory activity of the test sample on the binding of ^3H-flunitrazepam to GABAA receptor membrane protein was calculated. […]

Where [3] appears, read: competition with 1 nM 3H-flunitrazepam; HEK293 membranes expressing α2, β3, γ2 subunits; Ki calculated from IC50; read-out: α2 Ki.

Like-named read-outs stand apart in the source and are kept apart here.

On to `[2H]c1ccc(F)c(-c2cccn3c(N)c(C(=O)NCCC)nc23)c1OC` [Example 137, 3-Amino-8-(2-fluoro-6-methoxyphenyl-5-d)-N-propylimidazo[1,2-a]pyridine-2-carboxamide], for which the Emax at 0.1 µM on α2-GABAA receptor [1] is 97%. Further, the Ki (commonly a measure of affinity in units of concentration, obtained from inhibition or displacement) on α2-GABAA receptor [2] (setting [3]) is 13.5 nM.

In the case of `COc1ccc(C)cc1-c1cccn2c(N)c(C(=O)NC3CC(C)C3)nc12` (stereo not drawn) [Example 33, 3-Amino-8-(2-methoxy-5-methylphenyl)-N-(3-methylcyclobutyl)imidazo[1,2-a]pyridine-2-carboxamide], the Emax at 0.1 µM at α2-GABAA receptor [1] turned out to be 155%. On α2-GABAA receptor [2] (setting [3]), the Ki was 15.5 nM.

As for `COc1cccc(F)c1-c1cccn2c(N)c(C(=O)NC3CC3)nc12` [Example 5, 3-Amino-8-(2-fluoro-6-methoxyphenyl)-N-cyclopropylimidazo[1,2-a]pyridine-2-carboxamide], the Emax at 0.1 µM on α2-GABAA receptor [1] was found to be 65%. Besides, the Ki on α2-GABAA receptor [2] (setting [3]) was 39 nM.

Turning to `COc1cccc(F)c1-c1cccn2c(N)c(C(=O)NCC3CC3)nc12` [Example 6, 3-Amino-N-(cyclopropylmethyl)-8-(2-fluoro-6-methoxyphenyl)imidazo[1,2-a]pyridine-2-carboxamide], at α2-GABAA receptor [1], the Emax at 0.1 µM was 57%. The inhibitory constant (Ki) on α2-GABAA receptor [2] (setting [3]) is 24 nM.

For the compound `CCCNC(=O)c1nc2c(-c3cc(C)ccc3OC)cccn2c1N` [Example 49, 3-Amino-8-(2-methoxy-5-methylphenyl)-N-propylimidazo[1,2-a]pyridine-2-carboxamide], the Emax at 0.1 µM on α2-GABAA receptor [1] stood at 156%. Besides, the Ki on α2-GABAA receptor [2] (setting [3]) was 19.2 nM.

As to `CCCNC(=O)c1nc2c(-c3cc(C#N)ccc3OC)cccn2c1N` [Example 60, 3-Amino-8-(5-cyano-2-methoxyphenyl)-N-propylimidazo[1,2-a]pyridine-2-carboxamide], the Emax at 0.1 µM on α2-GABAA receptor [1] was 140%. On α2-GABAA receptor [2] (setting [3]), the Ki was 5.7 nM.

With `CCCNC(=O)c1nc2c(-c3cccc(OC)c3F)cccn2c1N` [Example 63, 3-Amino-8-(2-fluoro-3-methoxyphenyl)-N-propylimidazo[1,2-a]pyridine-2-carboxamide], at α2-GABAA receptor [1], the Emax at 0.1 µM came out at 71%. Also, the Ki on α2-GABAA receptor [2] (setting [3]) is 10.2 nM.

For `COc1cccc(F)c1-c1cccn2c(N)c(C(=O)NCc3ccccc3)nc12` [Example 19, 3-Amino-N-benzyl-8-(2-fluoro-6-methoxyphenyl)imidazo[1,2-a]pyridine-2-carboxamide], the Emax at 0.1 µM at α2-GABAA receptor [1] came to 65%. Also, at α2-GABAA receptor [2] (setting [3]), the inhibition constant (Ki) was 13.9 nM.

For the compound `[2H]c1ccc(OC)c(-c2cccn3c(N)c(C(=O)NCCC)nc23)c1F` [Example 136, 3-Amino-8-(2-fluoro-6-methoxyphenyl-3-d)-N-propylimidazo[1,2-a]pyridine-2-carboxamide], the Emax at 0.1 µM on α2-GABAA receptor [1] amounted to 91%. Also, the inhibition constant Ki on α2-GABAA receptor [2] (setting [3]) is 17.6 nM.

For `CCCNC(=O)c1nc2c(-c3c(F)ccc4c3oc(=O)n4C)cccn2c1N` [Example 105, 3-Amino-8-(6-fluoro-3-methyl-2-oxo-2,3-dihydrobenzo[d]oxazol-7-yl)-N-propylimidazo [1,2-a] pyridine-2-carboxamide], the Emax at 0.1 µM on α2-GABAA receptor [1] worked out at 160%. Moreover, the Ki on α2-GABAA receptor [2] (setting [3]) is 39.6 nM.

Consider `CCCNC(=O)c1nc2c(-c3cc(Cl)ccc3OC)cccn2c1N` [Example 62, 3-Amino-8-(5-chloro-2-methoxyphenyl)-N-propylimidazo[1,2-a]pyridine-2-carboxamide], for which, on α2-GABAA receptor [1], the Emax at 0.1 µM came to 192%. Also, on α2-GABAA receptor [2] (setting [3]), the inhibition constant (Ki) was 5.29 nM.

In the case of `COc1cccc(F)c1-c1cccn2c(N)c(C(=O)NC3CC(C)C3)nc12` (stereo not drawn) [Example 8, 3-Amino-8-(2-fluoro-6-methoxyphenyl)-N-(3-methylcyclobutyl)imidazo[1,2-a]pyridine-2-carboxamide], the Emax at 0.1 µM at α2-GABAA receptor [1] is 66%. In addition, the inhibition constant Ki at α2-GABAA receptor [2] (setting [3]) was 11.9 nM.

`CCCNC(=O)c1nc2c(-c3cc(F)cnc3OC)cccn2c1N` [Example 84, 3-Amino-8-(5-fluoro-2-methoxypyridin-3-yl)-N-propylimidazo[1,2-a]pyridine-2-carboxamide]: the Emax at 0.1 µM at α2-GABAA receptor [1] came out at 133%. Besides, the Ki on α2-GABAA receptor [2] (setting [3]) is 42 nM.

Take `CCCNC(=O)c1nc2c(-c3c(F)ccc(C)c3OC)cccn2c1N` [Example 78, 3-Amino-8-(6-fluoro-2-methoxy-3-methylphenyl)-N-propylimidazo[1,2-a]pyridine-2-carboxamide]: the Emax at 0.1 µM at α2-GABAA receptor [1] turned out to be 74%. Also, the inhibition constant Ki on α2-GABAA receptor [2] (setting [3]) is 31.7 nM.

For the compound `CCCNC(=O)c1nc2c(-c3cnccc3OC)cccn2c1N` [Example 85, 3-Amino-8-(4-methoxypyridin-3-yl)-N-propylimidazo[1,2-a]pyridine-2-carboxamide], the Emax at 0.1 µM on α2-GABAA receptor [1] worked out at 100%. At α2-GABAA receptor [2] (setting [3]), the Ki is 17.2 nM.

Regarding `CCCNC(=O)c1nc2c(-c3ccccc3OC)cccn2c1N` [Example 61, 3-Amino-8-(2-methoxyphenyl)-N-propylimidazo[1,2-a]pyridine-2-carboxamide], at α2-GABAA receptor [1], the Emax at 0.1 µM came to 91%. At α2-GABAA receptor [2] (setting [3]), the Ki was 39.4 nM.

`CCCNC(=O)c1nc2c(-c3cccnc3OC)cccn2c1N` [Example 82, 3-Amino-8-(2-methoxypyridin-3-yl)-N-propylimidazo[1,2-a]pyridine-2-carboxamide]: the Emax at 0.1 µM at α2-GABAA receptor [1] is 93%. On α2-GABAA receptor [2] (setting [3]), the Ki was 22.3 nM.

Turning to `CCCNC(=O)c1nc2c(-c3c(Cl)cccc3OC)cccn2c1N` [Example 72, 3-Amino-8-(2-chloro-6-methoxyphenyl)-N-propylimidazo[1,2-a]pyridine-2-carboxamide], at α2-GABAA receptor [1], the Emax at 0.1 µM came out at 44%. Also, at α2-GABAA receptor [2] (setting [3]), the inhibitory constant (Ki) is 95 nM.

In the case of `CCCNC(=O)c1nc2c(-c3cc(F)ccc3OC)cccn2c1N` [Example 51], at α2-GABAA receptor [1], the “α2-GABAAR Positive allosteric modulatory activity” value is on record as 121%. Besides, the inhibition constant (Ki) at α2-GABAA receptor [2] (read-out: α2 Ki; competition with 1 nM 3H-flunitrazepam; HEK293 membranes expressing α2, β3, γ2 subunits; Ki calculated from IC50) was 26 nM.

Regarding `COc1cccc(F)c1-c1cccn2c(N)c(C(=O)NC3CC(F)(F)C3)nc12` [Example 9, 3-Amino-N-(3,3-difluorocyclobutyl)-8-(2-fluoro-6-methoxyphenyl)imidazo[1,2-a]pyridine-2-carboxamide], the Emax at 0.1 µM on α2-GABAA receptor [1] was 52%. At α2-GABAA receptor [2] (setting [3]), the inhibition constant (Ki) was 93 nM.

`CCCNC(=O)c1nc2c(-c3c(OC)ccc(F)c3F)cccn2c1N` [Example 76, 3-Amino-8-(2,3-difluoro-6-methoxyphenyl)-N-propylimidazo[1,2-a]pyridine-2-carboxamide]: the Emax at 0.1 µM on α2-GABAA receptor [1] turned out to be 101%. Besides, the inhibition constant (Ki) at α2-GABAA receptor [2] (setting [3]) was 12.9 nM.

Turning to `COc1cccc(F)c1-c1cccn2c(N)c(C(=O)NC3CCC3)nc12` [Example 7, 3-Amino-8-(2-fluoro-6-methoxyphenyl)-N-cyclobutylimidazo[1,2-a]pyridine-2-carboxamide], on α2-GABAA receptor [1], the Emax at 0.1 µM was determined as 52%. For the same compound, at α2-GABAA receptor [2] (setting [3]), the inhibition constant Ki was 14.9 nM.

As to `CCCCNC(=O)c1nc2c(-c3c(F)cccc3OC)cccn2c1N` [Example 26, 3-Amino-8-(2-fluoro-6-methoxyphenyl)-N-butylimidazo[1,2-a]pyridine-2-carboxamide], at α2-GABAA receptor [1], the Emax at 0.1 µM was found to be 97%. Also, the Ki at α2-GABAA receptor [2] (setting [3]) is 17.8 nM.

Regarding `COc1cccc(F)c1-c1cccn2c(N)c(C(=O)NC3CCCC3)nc12` [Example 12, 3-Amino-N-cyclopentyl-8-(2-fluoro-6-methoxyphenyl)imidazo[1,2-a]pyridine-2-carboxamide], the Emax at 0.1 µM on α2-GABAA receptor [1] worked out at 32%. Moreover, on α2-GABAA receptor [2] (setting [3]), the inhibition constant (Ki) is 34.1 nM.

The values are drawn from patent publication EP4703359A1 (Shanghai Simr Biotechnology Co., Ltd., priority 2023, dated 2024).
